# Experimental data as given in patent US20230017045A1, “PYRIDINE AND PYRIMIDINE CARBOXYLATE HERBICIDES AND METHODS OF USE THEREOF” (Dow AgroSciences LLC, priority 2017, published 2023).
# Test system: test plant species
# Assay: Post-emergent herbicidal activity test (greenhouse, foliar spray, visual growth reduction)
# Type: in vivo
# Conditions: post-emergence, 336 h, ECHCG: barnyardgrass (Echinochloa crus-galli), 140 g ai/ha, 14 days after application, read-out: Visual Growth Reduction (%) 14 Days After Application, ECHCG
# Method: Post-emergent Test: Seeds or nutlets of the desired test plant species were planted in Sun Gro Metro-Mix® 360 planting mixture, which typically has a pH of 6.0 to 6.8 and an organic matter content of about 30 percent, in plastic pots with a surface area of 64 square centimeters. In some aspects, to ensure good germination and healthy plants, a fungicide treatment and/or other chemical or physical treatment was applied. The plants were grown for 7-21 d in a greenhouse with an approximate 15 h photoperiod which was maintained at 23-29° C. during the day and 22-28° C. during the night. Nutrients and water were added on a regular basis and supplemental lighting was provided with overhead metal halide 1000-Watt lamps as necessary. Plants were used for testing when they reached the first or second true leaf stage. A weighed amount, determined by the highest rate to be tested, of each test compound was placed in a 25 mL glass vial and was dissolved in 4 mL of a 97:3 v/v mixture of acetone and DMSO to obtain concentrated stock solutions. […] The concentrated stock solutions obtained were diluted with 20 mL of an aqueous mixture containing acetone, water, isopropyl alcohol, DMSO, […] crop oil concentrate, and X-77 surfactant in a 48.5:39:10:1.5:1.0:0.02 v/v ratio to obtain spray solutions containing the application rate. Compound requirements are based upon a 12 mL application volume at a rate of 187 liters per hectare (L/ha). Formulated compounds were applied to the plant material with an overhead Mandel track sprayer equipped with […] nozzles calibrated to deliver 187 L/ha over an application area of 0.64 square meters at a spray height of 18 inches (43 cm) above the average plant canopy height. Control plants were sprayed in the same manner with the solvent blank. The treated plants and control plants were placed in a greenhouse as described above and watered by subirrigation to prevent wash-off of the test compounds. After 14 d, the condition of the test plants as compared with that of the nontreated and control plants was determined visually and scored on a scale of 0 to 100 percent where 0 corresponds to no injury and 100 corresponds to complete control. In the reporting of the results, Table A: Percent Growth Reduction Conversion Table was used.
row,Compound,pest or weed control at 140 g/ha [%]
1,"COC(=O)c1nc(-c2ccc(C(F)(F)F)cc2Br)c(F)cc1F [F374, Methyl 6-(2-bromo-4-(trifluoromethyl)phenyl)-3,5-difluoropicolinate]",75 to 84
2,"COC(=O)c1nc(-c2ccc(C(F)(F)F)cc2Cl)ccc1[N+](=O)[O-] [F201, Methyl 6-(2-chloro-4-(trifluoromethyl)phenyl)-3-nitropicolinate]",0 to 29

# Same assay, conditions: post-emergence, 336 h, IPOHE: ivy-leaf morning glory (Ipomoea hederacea), 140 g ai/ha, 14 days after application, read-out: Visual Growth Reduction (%) 14 Days After Application, IPOHE
row,Compound,pest or weed control at 140 g/ha [%]
1,"COC(=O)c1nc(-c2ccc(C(F)(F)F)cc2Br)c(F)cc1F [F374, Methyl 6-(2-bromo-4-(trifluoromethyl)phenyl)-3,5-difluoropicolinate]",95 to 100
2,"COC(=O)c1nc(-c2ccc(C(F)(F)F)cc2Cl)ccc1[N+](=O)[O-] [F201, Methyl 6-(2-chloro-4-(trifluoromethyl)phenyl)-3-nitropicolinate]",0 to 29

# Same assay, conditions: post-emergence, 336 h, KCHSC: kochia (Bassia scoparia), 140 g ai/ha, 14 days after application, read-out: Visual Growth Reduction (%) 14 Days After Application, KCHSC
row,Compound,pest or weed control at 140 g/ha [%]
1,"COC(=O)c1nc(-c2ccc(C(F)(F)F)cc2Br)c(F)cc1F [F374, Methyl 6-(2-bromo-4-(trifluoromethyl)phenyl)-3,5-difluoropicolinate]",75 to 84
2,"COC(=O)c1nc(-c2ccc(C(F)(F)F)cc2Cl)ccc1[N+](=O)[O-] [F201, Methyl 6-(2-chloro-4-(trifluoromethyl)phenyl)-3-nitropicolinate]",0 to 29

# Same assay, conditions: post-emergence, 336 h, ORYSA: rice (Oryza sativa), 140 g ai/ha, 14 days after application, read-out: Visual Growth Reduction (%) 14 Days After Application, ORYSA
row,Compound,pest or weed control at 140 g/ha [%]
1,"COC(=O)c1nc(-c2ccc(C(F)(F)F)cc2Br)c(F)cc1F [F374, Methyl 6-(2-bromo-4-(trifluoromethyl)phenyl)-3,5-difluoropicolinate]",45 to 59
2,"COC(=O)c1nc(-c2ccc(C(F)(F)F)cc2Cl)ccc1[N+](=O)[O-] [F201, Methyl 6-(2-chloro-4-(trifluoromethyl)phenyl)-3-nitropicolinate]",0 to 29

# Same assay, conditions: post-emergence, 336 h, SETFA: giant foxtail (Setaria faberi), 140 g ai/ha, 14 days after application, read-out: Visual Growth Reduction (%) 14 Days After Application, SETFA
row,Compound,pest or weed control at 140 g/ha [%]
1,"COC(=O)c1nc(-c2ccc(C(F)(F)F)cc2Br)c(F)cc1F [F374, Methyl 6-(2-bromo-4-(trifluoromethyl)phenyl)-3,5-difluoropicolinate]",85 to 94
2,"COC(=O)c1nc(-c2ccc(C(F)(F)F)cc2Cl)ccc1[N+](=O)[O-] [F201, Methyl 6-(2-chloro-4-(trifluoromethyl)phenyl)-3-nitropicolinate]",0 to 29

# Same assay, conditions: post-emergence, 336 h, SORVU: grain sorghum (Sorghum vulgare), 140 g ai/ha, 14 days after application, read-out: Visual Growth Reduction (%) 14 Days After Application, SORVU
row,Compound,pest or weed control at 140 g/ha [%]
1,"COC(=O)c1nc(-c2ccc(C(F)(F)F)cc2Br)c(F)cc1F [F374, Methyl 6-(2-bromo-4-(trifluoromethyl)phenyl)-3,5-difluoropicolinate]",95 to 100
2,"COC(=O)c1nc(-c2ccc(C(F)(F)F)cc2Cl)ccc1[N+](=O)[O-] [F201, Methyl 6-(2-chloro-4-(trifluoromethyl)phenyl)-3-nitropicolinate]",0 to 29

# Same assay, conditions: post-emergence, 336 h, STEME: common chickweed (Stellaria media), 140 g ai/ha, 14 days after application, read-out: Visual Growth Reduction (%) 14 Days After Application, STEME
row,Compound,pest or weed control at 140 g/ha [%]
1,"COC(=O)c1nc(-c2ccc(C(F)(F)F)cc2Br)c(F)cc1F [F374, Methyl 6-(2-bromo-4-(trifluoromethyl)phenyl)-3,5-difluoropicolinate]",0 to 29
2,"COC(=O)c1nc(-c2ccc(C(F)(F)F)cc2Cl)ccc1[N+](=O)[O-] [F201, Methyl 6-(2-chloro-4-(trifluoromethyl)phenyl)-3-nitropicolinate]",0 to 29

# Same assay, conditions: post-emergence, 336 h, TRZAS: wheat, spring (Triticum aestivum), 140 g ai/ha, 14 days after application, read-out: Visual Growth Reduction (%) 14 Days After Application, TRZAS
row,Compound,pest or weed control at 140 g/ha [%]
1,"COC(=O)c1nc(-c2ccc(C(F)(F)F)cc2Br)c(F)cc1F [F374, Methyl 6-(2-bromo-4-(trifluoromethyl)phenyl)-3,5-difluoropicolinate]",60 to 74
2,"COC(=O)c1nc(-c2ccc(C(F)(F)F)cc2Cl)ccc1[N+](=O)[O-] [F201, Methyl 6-(2-chloro-4-(trifluoromethyl)phenyl)-3-nitropicolinate]",0 to 29

# Same assay, conditions: post-emergence, 336 h, blackgrass (Alopecurus myosuroides), 14 Days After Application, 140 g ai/ha, read-out: Visual Growth Reduction (%) ALOMY
row,Compound,pest or weed control at 140 g/ha [%]
1,"COC(=O)c1nc(-c2ccc(C(F)(F)F)cc2Br)c(F)cc1F [F374, Methyl 6-(2-bromo-4-(trifluoromethyl)phenyl)-3,5-difluoropicolinate]",45 to 59
2,"COC(=O)c1nc(-c2ccc(C(F)(F)F)cc2Cl)ccc1[N+](=O)[O-] [F201, Methyl 6-(2-chloro-4-(trifluoromethyl)phenyl)-3-nitropicolinate]",0 to 29

# Same assay, conditions: post-emergence, 336 h, canada thistle (Cirsium arvense), 14 Days After Application, 140 g ai/ha, read-out: Visual Growth Reduction (%) CIRAR
row,Compound,pest or weed control at 140 g/ha [%]
1,"COC(=O)c1nc(-c2ccc(C(F)(F)F)cc2Br)c(F)cc1F [F374, Methyl 6-(2-bromo-4-(trifluoromethyl)phenyl)-3,5-difluoropicolinate]",95 to 100
2,"COC(=O)c1nc(-c2ccc(C(F)(F)F)cc2Cl)ccc1[N+](=O)[O-] [F201, Methyl 6-(2-chloro-4-(trifluoromethyl)phenyl)-3-nitropicolinate]",0 to 29

# Same assay, conditions: post-emergence, 336 h, crabgrass (Digitaria sanguinalis), 14 Days After Application, 140 g ai/ha, read-out: Visual Growth Reduction (%) DIGSA
row,Compound,pest or weed control at 140 g/ha [%]
1,"COC(=O)c1nc(-c2ccc(C(F)(F)F)cc2Br)c(F)cc1F [F374, Methyl 6-(2-bromo-4-(trifluoromethyl)phenyl)-3,5-difluoropicolinate]",85 to 94
2,"COC(=O)c1nc(-c2ccc(C(F)(F)F)cc2Cl)ccc1[N+](=O)[O-] [F201, Methyl 6-(2-chloro-4-(trifluoromethyl)phenyl)-3-nitropicolinate]",0 to 29

# Same assay, conditions: post-emergence, 336 h, lambsquarters (Chenopodium album), 14 Days After Application, 140 g ai/ha, read-out: Visual Growth Reduction (%) CHEAL
row,Compound,pest or weed control at 140 g/ha [%]
1,"COC(=O)c1nc(-c2ccc(C(F)(F)F)cc2Br)c(F)cc1F [F374, Methyl 6-(2-bromo-4-(trifluoromethyl)phenyl)-3,5-difluoropicolinate]",95 to 100
2,"COC(=O)c1nc(-c2ccc(C(F)(F)F)cc2Cl)ccc1[N+](=O)[O-] [F201, Methyl 6-(2-chloro-4-(trifluoromethyl)phenyl)-3-nitropicolinate]",0 to 29

# Same assay, conditions: post-emergence, 336 h, redroot pigweed (Amaranthus retroflexus), 14 Days After Application, 140 g ai/ha, read-out: Visual Growth Reduction (%) AMARE
row,Compound,pest or weed control at 140 g/ha [%]
1,"COC(=O)c1nc(-c2ccc(C(F)(F)F)cc2Br)c(F)cc1F [F374, Methyl 6-(2-bromo-4-(trifluoromethyl)phenyl)-3,5-difluoropicolinate]",95 to 100
2,"COC(=O)c1nc(-c2ccc(C(F)(F)F)cc2Cl)ccc1[N+](=O)[O-] [F201, Methyl 6-(2-chloro-4-(trifluoromethyl)phenyl)-3-nitropicolinate]",45 to 59

# Same assay, conditions: post-emergence, 336 h, wild oat (Avena fatua), 14 Days After Application, 140 g ai/ha, read-out: Visual Growth Reduction (%) AVEFA
row,Compound,pest or weed control at 140 g/ha [%]
1,"COC(=O)c1nc(-c2ccc(C(F)(F)F)cc2Br)c(F)cc1F [F374, Methyl 6-(2-bromo-4-(trifluoromethyl)phenyl)-3,5-difluoropicolinate]",45 to 59
2,"COC(=O)c1nc(-c2ccc(C(F)(F)F)cc2Cl)ccc1[N+](=O)[O-] [F201, Methyl 6-(2-chloro-4-(trifluoromethyl)phenyl)-3-nitropicolinate]",0 to 29

# Same assay, conditions: post-emergence, 336 h, yellow nutsedge (Cyperus esculentus), 14 Days After Application, 140 g ai/ha, read-out: Visual Growth Reduction (%) CYPES
row,Compound,pest or weed control at 140 g/ha [%]
1,"COC(=O)c1nc(-c2ccc(C(F)(F)F)cc2Br)c(F)cc1F [F374, Methyl 6-(2-bromo-4-(trifluoromethyl)phenyl)-3,5-difluoropicolinate]",0 to 29
2,"COC(=O)c1nc(-c2ccc(C(F)(F)F)cc2Cl)ccc1[N+](=O)[O-] [F201, Methyl 6-(2-chloro-4-(trifluoromethyl)phenyl)-3-nitropicolinate]",0 to 29
